According to US10253039B2, “Inhibitors of bacterial DNA gyrase with efficacy against gram-negative bacteria” (priority 2014, dated 2019):
≈ marks a conversion by molar mass, not a printed value. Where two headings read alike, the source gives them in different places.

Experiments:
[1] = system: E. coli BW25113 ΔtolC gyrR isolate GyrA Phe96Leu; test: MIC against gyramide-resistant mutant
[2] = system: E. coli BW25113 ΔtolC; test: MIC, microdilution in 96-well plates
[3] = system: E. coli BW25113 ΔtolC cipR isolate GyrA Ser83Leu; test: MIC against ciprofloxacin-resistant mutant; conditions: Escherichia coli, BW25113
[4] = system: E. coli BW25113 ΔtolC gyrR isolate GyrA Pro35Thr; test: MIC against gyramide-resistant mutant
[5] = system: E. coli BW25113 ΔtolC cipR isolate GyrA Asp87Gly; test: MIC against ciprofloxacin-resistant mutant; conditions: Escherichia coli, BW25113
[6] = system: E. coli BW25113 ΔtolC gyrR isolate GyrB Thr508Met; test: MIC against gyramide-resistant mutant
[7] = system: E. coli BW25113 ΔtolC cipR isolate GyrB Ser464Phe; test: MIC against ciprofloxacin-resistant mutant; conditions: Escherichia coli, BW25113
[8] = system: E. coli BW25113 ΔtolC cipR isolate GyrA Asp87Tyr; test: MIC against ciprofloxacin-resistant mutant; conditions: Escherichia coli, BW25113
[9] = system: E. coli BW25113 ΔtolC gyrR isolate GyrA Ser97Pro; test: MIC against gyramide-resistant mutant
[10] = system: E. coli BW25113 ΔtolC gyrR isolate GyrA His45Tyr; test: MIC against gyramide-resistant mutant
[11] = system: Streptococcus pyogenes; test: MIC, 20-strain panel; type: cell-based
Summary of the method: (§1)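 CLSI microdilution, LB, 1:10000 inoculum of actively growing culture; 2-fold dilution series in triplicate, DMSO control lane; 37° C., shaking, 16-18 h; endpoint = no visible growth.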

[12] = system: Morganella morganii subsp. morganii; test: MIC, 20-strain panel; type: cell-based; conditions: Morganella morganii
Summary of the method: as §1

[13] = system: Staphylococcus aureus subsp. aureus; test: MIC, 20-strain panel; type: cell-based; conditions: read-out: MIC
Summary of the method: as §1

[14] = system: E. coli MG1655; test: MIC, 20-strain panel; type: cell-based; conditions: Escherichia coli, read-out: MIC
Summary of the method: as §1

[15] = system: Streptococcus agalactiae; test: MIC, 20-strain panel; type: cell-based
Summary of the method: as §1

[16] = system: Staphylococcus epidermidis; test: MIC, 20-strain panel; type: cell-based
Summary of the method: as §1

[17] = system: Staphylococcus saprophyticus subsp. saprophyticus; test: MIC, 20-strain panel; type: cell-based
Summary of the method: as §1

[18] = system: Klebsiella pneumoniae subsp. pneumoniae; test: MIC, 20-strain panel; type: cell-based
Summary of the method: as §1

[19] = system: Shigella flexneri; test: MIC, 20-strain panel; type: cell-based
Summary of the method: as §1

[20] = system: E. coli JW5503 (deltolC); test: MIC, 20-strain panel; type: cell-based; conditions: Escherichia coli
Summary of the method: as §1

[21] = system: Salmonella enterica subsp. enterica typhimurium; test: MIC, 20-strain panel; type: cell-based
Summary of the method: as §1

[22] = system: Acinetobacter baumannii; test: MIC, microdilution in 96-well plates; type: cell-based
Summary of the method: as §1

[23] = system: Edwardsiella tarda; test: MIC, microdilution in 96-well plates; type: cell-based
Summary of the method: as §1

[24] = system: E. coli BW25113; test: MIC, microdilution in 96-well plates; type: cell-based; conditions: Escherichia coli, read-out: MIC
Summary of the method: as §1

[25] = system: Enterobacter aerogenes; test: MIC, microdilution in 96-well plates; type: cell-based; conditions: Klebsiella aerogenes
Summary of the method: as §1

[26] = system: Pseudomonas aeruginosa; test: MIC, microdilution in 96-well plates; type: cell-based
Summary of the method: as §1

[27] = Escherichia coli, BW25113, E. coli BW25113 ΔtolC (parent strain), Table 4
[28] = H: Staphylococcus aureus subsp. aureus
[29] = MG1655, E. coli MG1655, Table 7, separate set of experiments
[30] = E: Klebsiella pneumoniae subsp. pneumoniae
[31] = Klebsiella pneumoniae subsp. pneumoniae, Table 7, separate set of experiments
[32] = Table 7, separate set of experiments
[33] = E. coli JW5503 (deltolC), Table 7, separate set of experiments
[34] = F: Salmonella enterica subsp. enterica Typhimurium
[35] = Salmonella enterica subsp. enterica typhimurium, Table 7, separate set of experiments
[36] = BW25113, E. coli BW25113, Table 7, separate set of experiments

Row | SMILES | MIC [11] [µg/mL] | MIC [12] [µg/mL] | MIC [13, 28] [µg/mL] | MIC ([14]; MG1655, A: E. coli MG1655) [µg/mL] | MIC [14, 29] [µg/mL] | MIC [15] [µg/mL] | MIC [16] [µg/mL] | MIC [17] [µg/mL] | MIC [18, 30] [µg/mL] | MIC [18, 31] [µg/mL] | MIC ([19]; G: Shigella flexneri) [µg/mL] | MIC [19, 32] [µg/mL] | MIC ([20]; C: E. coli JW5503 (deltolC)) [µg/mL] | MIC [20, 33] [µg/mL] | MIC [21, 34] [µg/mL] | MIC [21, 35] [µg/mL] | MIC [22] [µg/mL] | MIC ([23]; D: Edwardsiella tarda) [µg/mL] | MIC [23, 32] [µg/mL] | MIC ([24]; BW25113, B: E. coli BW25113) [µg/mL] | further results
1 | O=C(O)c1cn(C2CC2)c2cc(N3CCNCC3)c(F)cc2c1=O [Ciprofloxacin, ciprofloxacin] |  |  |  |  |  |  |  |  |  |  |  |  |  |  |  |  |  |  |  |  | MIC ([1]; Escherichia coli, BW25113): 0.01 µM (≈ 0.00331 µg/mL); MIC [2, 27]: 0.005 µM (≈ 0.00166 µg/mL); MIC ([2]; Escherichia coli, BW25113, E. coli BW25113 ΔtolC (parent strain), Table 5): 0.00625 µM (≈ 0.00207 µg/mL); MIC [3]: 0.2 µM (≈ 0.0663 µg/mL); MIC ([4]; Escherichia coli, BW25113): 0.005 µM (≈ 0.00166 µg/mL); MIC [5]: 0.05 µM (≈ 0.0166 µg/mL); MIC ([6]; Escherichia coli, BW25113): 0.01 µM (≈ 0.00331 µg/mL); MIC [7]: 0.05 µM (≈ 0.0166 µg/mL); MIC [8]: 0.1 µM (≈ 0.0331 µg/mL); MIC ([9]; Escherichia coli, BW25113): 0.005 µM (≈ 0.00166 µg/mL); MIC ([10]; Escherichia coli, BW25113): 0.01 µM (≈ 0.00331 µg/mL)
2 | O=S(=O)(N[C@@H]1CCN(Cc2ccc(OC3CC3)cc2)C1)c1cccc(C(F)(F)F)c1 [Compound 156] | > 8 | > 16 | > 8 | ~8 (≈ 18.2 µM) | 16 (≈ 36.3 µM) | > 8 | > 8 | > 8 | > 8 | > 16 | 8 (≈ 18.2 µM) | 8 (≈ 18.2 µM) | 0.125 (≈ 0.284 µM) | 0.125 (≈ 0.284 µM) | 4 (≈ 9.08 µM) | 4 (≈ 9.08 µM) | > 16 | ~8 (≈ 18.2 µM) | 16 (≈ 36.3 µM) | ~8 (≈ 18.2 µM) | MIC [24, 36]: 16 µg/mL (≈ 36.3 µM); MIC [25]: > 16 µg/mL; MIC [26]: > 16 µg/mL
3 | Cc1ccc(C#N)cc1S(=O)(=O)N[C@@H]1CCN(Cc2ccc(OC3CC3)cc2)C1 [Compound 113] | > 8 | > 16 | > 8 | ~8 (≈ 19.4 µM) | 16 (≈ 38.9 µM) | > 8 | > 8 | > 8 | > 8 | > 16 | ~8 (≈ 19.4 µM) | 8 (≈ 19.4 µM) | 0.25 (≈ 0.607 µM) | 0.125 (≈ 0.304 µM) | 2 (≈ 4.86 µM) | 4 (≈ 9.72 µM) | > 16 | ~8 (≈ 19.4 µM) | 16 (≈ 38.9 µM) | ~8 (≈ 19.4 µM) | MIC [24, 36]: 8 µg/mL (≈ 19.4 µM); MIC [25]: > 16 µg/mL; MIC [26]: > 16 µg/mL
4 | N#Cc1ccc(Cl)c(S(=O)(=O)N[C@@H]2CCN(Cc3ccc(OC4CC4)cc3)C2)c1 [Compound 77] | > 8 | > 16 | > 8 | 8 (≈ 18.5 µM) | 16 (≈ 37 µM) | > 8 | > 8 | > 8 | ~8 (≈ 18.5 µM) | > 16 | 4 (≈ 9.26 µM) | 4 (≈ 9.26 µM) | 0.125 (≈ 0.289 µM) | 0.125 (≈ 0.289 µM) | 1 (≈ 2.32 µM) | 2 (≈ 4.63 µM) | > 16 | 8 (≈ 18.5 µM) | 16 (≈ 37 µM) | 8 (≈ 18.5 µM) | MIC [24, 36]: 8 µg/mL (≈ 18.5 µM); MIC [25]: > 16 µg/mL; MIC [26]: > 16 µg/mL
5 | CO[C@@H]1[C@@H](OC(N)=O)[C@@H](O)[C@H](Oc2ccc3c(O)c(NC(=O)c4ccc(O)c(CC=C(C)C)c4)c(=O)oc3c2C)OC1(C)C [Novobiocin, novobiocin] |  |  |  |  |  |  |  |  |  |  |  |  |  |  |  |  |  |  |  |  | MIC ([1]; Escherichia coli, BW25113): 1.25 µM (≈ 0.766 µg/mL); MIC [2, 27]: 1.25 µM (≈ 0.766 µg/mL); MIC ([4]; Escherichia coli, BW25113): 1.25 µM (≈ 0.766 µg/mL); MIC ([6]; Escherichia coli, BW25113): 1.25 µM (≈ 0.766 µg/mL); MIC ([9]; Escherichia coli, BW25113): 1.25 µM (≈ 0.766 µg/mL); MIC ([10]; Escherichia coli, BW25113): 1.25 µM (≈ 0.766 µg/mL)
6 | Cc1ccc(F)cc1S(=O)(=O)NC1CCN(Cc2ccc(OC(C)C)cc2)C1 (centres unmarked) [Gyramide A] |  |  |  |  |  |  |  |  |  |  |  |  |  |  |  |  |  |  |  |  | MIC ([1]; gyrR isolate GyrA Phe96Leu): 320 µM (≈ 130 µg/mL); MIC ([2]; E. coli BW25113 ΔtolC (parent strain), Table 4): 20 µM (≈ 8.13 µg/mL); MIC ([4]; gyrR isolate GyrA Pro35Thr): 320 µM (≈ 130 µg/mL); MIC ([6]; gyrR isolate GyrB Thr508Met): 320 µM (≈ 130 µg/mL); MIC ([9]; gyrR isolate GyrA Ser97Pro): 320 µM (≈ 130 µg/mL); MIC ([10]; gyrR isolate GyrA His45Tyr): 320 µM (≈ 130 µg/mL)
7 | O=S(=O)(N[C@@H]1CCN(Cc2ccc(-n3cccn3)cc2)C1)c1cccc(OC(F)(F)F)c1 [Compound 21] | > 8 |  | 8 (≈ 17.1 µM) | > 8 |  | > 8 | 2 (≈ 4.29 µM) | > 8 | > 8 |  | > 8 |  | 2 (≈ 4.29 µM) |  | > 8 |  |  | > 8 |  | > 8 | 
8 | O=S(=O)(N[C@@H]1CCN(Cc2ccc(OC3CC3)cc2)C1)c1cc(F)cc(C(F)(F)F)c1 [Compound 152] | > 8 |  |  |  |  | > 8 | > 8 | > 8 |  |  |  |  |  |  |  |  |  |  |  |  | MIC ([13]; Staphylococcus aureus subsp. aureus): > 8 µg/mL; MIC ([14]; MG1655, E. coli MG1655): > 8 µg/mL; MIC ([18]; Klebsiella pneumoniae subsp. pneumoniae): > 8 µg/mL; MIC [19]: > 8 µg/mL; MIC ([20]; E. coli JW5503 (deltolC)): 8 µg/mL (≈ 17.4 µM); MIC ([21]; Salmonella enterica subsp. enterica Typhimurium): > 8 µg/mL; MIC [23]: > 8 µg/mL; MIC ([24]; BW25113, E. coli BW25113): > 8 µg/mL
9 | O=S(=O)(N[C@@H]1CCN(Cc2ccc(-n3ccnn3)cc2)C1)c1cccc(C(F)(F)F)c1 [Compound 3] | > 8 |  | > 8 | > 8 |  | > 8 | > 8 | > 8 | > 8 |  | > 8 |  | 4 (≈ 8.86 µM) |  | > 8 |  |  | > 8 |  | > 8 | 
